Results on 1 compound are retold here after publication PMC6934184, “Selective DNA-PKcs inhibition extends the therapeutic index of localized radiotherapy and chemotherapy” (The Journal of Clinical Investigation, 2019).

This assay concerns the target T1, MAPKAPK2 (Homo sapiens, UniProt P49137).
T1 construct: purchased Thermo Fisher Scientific (Life Technologies) SelectScreen
Put plainly: SelectScreen Z'LYTE. The class given is biochemical. Put shortly: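 Percent values come from Thermo SelectScreen profiling of NU5455, combining activity and binding assays. CSF1R was run in Z'LYTE format at Km app ATP, and CAMK1 in Adapta format with ATP listed at 10.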

T1 sequence (P49137 whole entry): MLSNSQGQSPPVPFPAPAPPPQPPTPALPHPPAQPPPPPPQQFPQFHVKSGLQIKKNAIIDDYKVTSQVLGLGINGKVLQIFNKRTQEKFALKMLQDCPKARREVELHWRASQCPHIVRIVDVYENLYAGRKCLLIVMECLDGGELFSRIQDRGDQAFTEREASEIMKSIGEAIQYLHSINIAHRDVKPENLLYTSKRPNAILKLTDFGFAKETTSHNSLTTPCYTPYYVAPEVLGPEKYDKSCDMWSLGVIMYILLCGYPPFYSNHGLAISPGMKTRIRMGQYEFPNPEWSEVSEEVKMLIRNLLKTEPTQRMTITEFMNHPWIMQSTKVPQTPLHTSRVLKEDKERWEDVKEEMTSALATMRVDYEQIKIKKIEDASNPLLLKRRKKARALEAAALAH

As usually defined, the inhibition is the change of the read-out against control, counted positive when it falls. `CN(C(=O)CN1CCOCC1)c1ccc2sc3c(-c4cccc5c(=O)cc(N6CC7CCC(C6)O7)oc45)cccc3c2c1` [NU5455]: the inhibition at 1 µM is -3.1%.
